# Test results: the supplement of paper PMC10307832
# What was measured:
# Test in all cases: relative viability (nuclei count vs DMSO), 5 days (fraction); higher = more cells survive
# Dovitinib + Linsitinib = compound: CN1CCN(c2ccc3nc(-c4c(N)c5c(F)cccc5[nH]c4=O)[nH]c3c2)CC1 [Dovitinib] + C[C@]1(O)C[C@@H](c2nc(-c3ccc4ccc(-c5ccccc5)nc4c3)c3c(N)nccn32)C1 [Linsitinib] (partner 1 µM)
# Procedure, shortened: (§1)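 One day after seeding in 1536-well plates, lung cancer cell lines were dosed by pin tool. Dosing was either single-drug or a fixed anchor-drug dose plus five library-drug doses (not always all listed) in √10 steps. After 5 days, nuclei were stained in one fix-and-stain step and counted on 4× images, and relative viability is the nuclei count of treated wells over that of vehicle wells, given as the median of duplicate plates.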
# Dovitinib + Pemetrexed = compound: CN1CCN(c2ccc3nc(-c4c(N)c5c(F)cccc5[nH]c4=O)[nH]c3c2)CC1 [Dovitinib] + Nc1nc2[nH]cc(CCc3ccc(C(=O)N[C@@H](CCC(=O)O)C(=O)O)cc3)c2c(=O)[nH]1 [Pemetrexed] (partner 0.2 µM)
# Procedure, shortened: as §1
# Dovitinib + Vorinostat = compound: CN1CCN(c2ccc3nc(-c4c(N)c5c(F)cccc5[nH]c4=O)[nH]c3c2)CC1 [Dovitinib] + O=C(CCCCCCC(=O)Nc1ccccc1)NO [Vorinostat] (partner 1 µM)
# Procedure, shortened: as §1
# Dovitinib + Olaparib = compound: CN1CCN(c2ccc3nc(-c4c(N)c5c(F)cccc5[nH]c4=O)[nH]c3c2)CC1 [Dovitinib] + O=C(c1cc(Cc2n[nH]c(=O)c3ccccc23)ccc1F)N1CCN(C(=O)C2CC2)CC1 [Olaparib] (partner 8 µM)
# Procedure, shortened: as §1
Cell Line,relative viability (Dovitinib + Linsitinib; first compound 0.02 µM),relative viability (Dovitinib + Linsitinib; first compound 0.06325 µM),relative viability (Dovitinib + Linsitinib; first compound 0.2 µM),relative viability (Dovitinib + Linsitinib; first compound 0.6325 µM),relative viability (Dovitinib + Linsitinib; first compound 2 µM),relative viability (Dovitinib + Pemetrexed; first compound 0.02 µM),relative viability (Dovitinib + Pemetrexed; first compound 0.06325 µM),relative viability (Dovitinib + Pemetrexed; first compound 0.2 µM),relative viability (Dovitinib + Pemetrexed; first compound 0.6325 µM),relative viability (Dovitinib + Pemetrexed; first compound 2 µM),relative viability (Dovitinib + Vorinostat; first compound 0.02 µM),relative viability (Dovitinib + Vorinostat; first compound 0.06325 µM),relative viability (Dovitinib + Vorinostat; first compound 0.2 µM),relative viability (Dovitinib + Vorinostat; first compound 0.6325 µM),relative viability (Dovitinib + Vorinostat; first compound 2 µM),relative viability (Dovitinib + Olaparib; first compound 0.02 µM),relative viability (Dovitinib + Olaparib; first compound 0.06325 µM),relative viability (Dovitinib + Olaparib; first compound 0.2 µM),relative viability (Dovitinib + Olaparib; first compound 0.6325 µM),relative viability (Dovitinib + Olaparib; first compound 2 µM)
NCI-H650,0.953,0.675,0.839,0.95,1.01,0.908,0.856,0.898,0.983,0.956,0.368,0.414,0.58,0.395,0.774,0.348,0.388,0.391,0.414,0.429
NCI-H661,0.537,0.547,0.618,0.613,0.654,0.888,0.927,0.935,0.878,0.949,0.733,0.837,0.826,0.938,0.843,0.68,0.749,0.738,0.774,0.752
NCI-H838,0.97,1.05,0.999,1.01,0.977,0.262,0.277,0.229,0.234,0.265,0.711,0.742,0.706,0.716,0.677,0.738,0.733,0.755,0.745,0.763
NCI-H1355,0.821,0.886,0.856,0.801,0.812,1.08,0.945,1.16,1.1,1.1,0.671,0.638,0.628,0.695,0.704,0.792,0.762,0.717,0.723,0.754
NCI-H1395,1.05,1.29,1.24,1.06,1.12,0.91,0.807,0.933,0.911,1.02,0.678,0.622,0.787,0.811,0.924,0.533,0.431,0.478,0.505,0.479
NCI-H1437,0.963,1.05,0.984,0.955,1.03,0.293,0.327,0.31,0.288,0.308,0.884,0.847,0.9,0.803,0.745,0.623,0.647,0.612,0.632,0.655
NCI-H1651,1.05,0.895,0.902,0.929,0.936,0.553,0.544,0.563,0.64,0.544,0.491,0.593,0.539,0.597,0.543,0.175,0.187,0.167,0.191,0.163
NCI-H1666,0.793,0.687,0.859,0.764,0.896,0.913,0.863,0.766,0.813,0.785,1.15,0.919,1.11,1.04,1.05,0.755,0.777,0.756,0.731,0.77
NCI-H1734,0.961,0.862,0.843,0.902,0.833,0.443,0.442,0.414,0.403,0.418,0.832,0.773,0.784,0.785,0.875,0.66,0.648,0.547,0.605,0.678
NCI-H1755,0.968,0.976,0.94,1.01,0.998,0.432,0.382,0.433,0.4,0.423,0.798,0.83,0.884,0.935,0.776,0.893,0.858,0.914,0.842,0.878
NCI-H1793,0.964,0.679,0.856,0.754,0.834,1.27,0.735,0.96,0.916,0.943,1.01,0.753,0.751,0.891,0.773,0.901,0.928,0.786,0.873,1.02
NCI-H1915,1.09,1.09,1.08,1.09,1.05,0.459,0.466,0.536,0.473,0.467,0.469,0.502,0.531,0.499,0.531,0.253,0.27,0.271,0.264,0.257
NCI-H1944,1.14,1.18,1.15,1.22,1.18,0.583,0.649,0.677,0.739,0.597,0.502,0.702,0.646,0.583,0.64,0.416,0.422,0.447,0.387,0.426
NCI-H1975,0.903,0.954,0.915,0.934,1.09,0.305,0.286,0.268,0.294,0.294,0.692,0.728,0.662,0.734,0.682,0.733,0.912,0.671,0.792,0.74
NCI-H1993,0.774,0.678,0.657,0.695,0.808,0.665,0.521,0.633,0.594,0.486,0.929,0.754,0.823,0.76,0.943,1.07,0.961,1.08,0.912,0.982
NCI-H2009,1.16,1.18,1.15,1.2,1.2,0.967,1.06,1.03,0.979,1.03,0.72,0.744,0.747,0.736,0.829,0.651,0.668,0.657,0.671,0.832

Cell Line,relative viability (Dovitinib + Linsitinib; first compound 0.02 µM),relative viability (Dovitinib + Linsitinib; first compound 0.06325 µM),relative viability (Dovitinib + Linsitinib; first compound 0.2 µM),relative viability (Dovitinib + Linsitinib; first compound 0.6325 µM),relative viability (Dovitinib + Linsitinib; first compound 2 µM),relative viability (Dovitinib + Pemetrexed; first compound 0.02 µM),relative viability (Dovitinib + Pemetrexed; first compound 0.06325 µM),relative viability (Dovitinib + Pemetrexed; first compound 0.2 µM),relative viability (Dovitinib + Pemetrexed; first compound 0.6325 µM),relative viability (Dovitinib + Pemetrexed; first compound 2 µM),relative viability (Dovitinib + Vorinostat; first compound 0.02 µM),relative viability (Dovitinib + Vorinostat; first compound 0.06325 µM),relative viability (Dovitinib + Vorinostat; first compound 0.2 µM),relative viability (Dovitinib + Vorinostat; first compound 0.6325 µM),relative viability (Dovitinib + Vorinostat; first compound 2 µM),relative viability (Dovitinib + Olaparib; first compound 0.02 µM),relative viability (Dovitinib + Olaparib; first compound 0.06325 µM),relative viability (Dovitinib + Olaparib; first compound 0.2 µM),relative viability (Dovitinib + Olaparib; first compound 0.6325 µM),relative viability (Dovitinib + Olaparib; first compound 2 µM)
NCI-H2023,0.744,0.638,0.734,0.741,0.595,0.205,0.232,0.238,0.216,0.19,0.532,0.745,0.818,0.683,0.579,0.454,0.487,0.541,0.432,0.482
NCI-H2085,0.927,1.08,1.07,0.913,0.917,0.941,0.991,1.03,0.871,0.958,0.808,0.821,0.819,0.765,0.801,0.731,0.828,0.723,0.762,0.758
NCI-H2087,0.953,0.943,1.09,1,0.825,0.755,0.668,0.661,0.716,0.616,0.817,0.79,0.685,0.837,0.803,0.631,0.519,0.604,0.571,0.689
NCI-H2126,0.697,0.691,0.748,0.747,0.696,0.734,0.653,0.676,0.705,0.711,0.811,0.819,0.798,0.876,0.838,0.871,0.934,0.92,0.936,0.878
NCI-H2228,0.789,0.632,0.669,0.967,0.633,0.258,0.344,0.324,0.33,0.321,0.559,0.81,0.402,0.79,0.6,0.689,0.592,0.866,0.768,0.573
NCI-H2347,0.997,0.892,0.953,0.978,0.969,0.479,0.53,0.415,0.467,0.475,0.694,0.647,0.561,0.692,0.686,0.568,0.59,0.621,0.641,0.606
NCI-H2405,0.954,0.873,0.971,0.873,1.05,1.05,1.02,1.25,1.08,1.11,0.99,0.961,1.07,1.06,1.17,0.858,0.849,0.944,0.815,0.903
NCI-H3122,1,0.95,1.07,1.1,0.991,0.194,0.207,0.199,0.186,0.189,0.823,0.91,1.07,0.951,1.08,0.623,0.619,0.663,0.56,0.536
PC-3 [JPC-3],0.923,0.907,0.983,0.99,0.967,1.12,1.12,1.16,1.3,1.21,0.888,0.77,0.948,0.945,0.914,1.16,1.16,1.14,1.13,1.15
PC-14,1.03,0.954,0.969,0.996,0.928,0.128,0.134,0.121,0.141,0.132,0.771,0.938,0.778,0.694,0.757,0.291,0.276,0.27,0.217,0.247
RERF-LC-KJ,0.89,0.934,0.938,0.838,0.842,0.47,0.49,0.483,0.475,0.47,0.654,0.681,0.761,0.667,0.685,0.932,0.892,0.939,0.982,0.896
SK-LU-1,1.1,0.999,0.966,1.07,1.06,0.985,0.92,0.913,1,1.02,0.753,0.913,0.759,0.715,0.805,0.418,0.487,0.446,0.501,0.452
SK-MES-1,1.09,1.02,1.09,1.15,1.07,0.941,0.958,0.972,0.966,1.03,1.08,1.13,1.17,1.09,1.12,0.682,0.749,0.74,0.773,0.829
SW 1573,0.798,0.795,0.749,0.766,0.864,0.853,0.859,0.858,0.868,0.861,0.65,0.908,0.6,0.702,1.02,0.512,0.525,0.593,0.446,0.507
UMC-11,0.983,1.1,0.986,1.07,1.07,0.808,0.787,0.838,0.876,0.822,0.449,0.422,0.478,0.383,0.431,0.334,0.352,0.383,0.387,0.435
